{
  "source": "patent US20080194640A1",
  "about": "“Optically Active Tetrahydronaphthalene Derivative” (priority 2005, published 2008)",
  "key": {"C5a receptor": {"target": "T1, C5a receptor (Homo sapiens, UniProt P21730)", "T1 construct": "neutrophil fraction was separated from human peripheral intravenous blood; endogenous in cells; host or cells: human peripheral blood neutrophils (whole cells)", "T1 sequence (P21730 1-350)": "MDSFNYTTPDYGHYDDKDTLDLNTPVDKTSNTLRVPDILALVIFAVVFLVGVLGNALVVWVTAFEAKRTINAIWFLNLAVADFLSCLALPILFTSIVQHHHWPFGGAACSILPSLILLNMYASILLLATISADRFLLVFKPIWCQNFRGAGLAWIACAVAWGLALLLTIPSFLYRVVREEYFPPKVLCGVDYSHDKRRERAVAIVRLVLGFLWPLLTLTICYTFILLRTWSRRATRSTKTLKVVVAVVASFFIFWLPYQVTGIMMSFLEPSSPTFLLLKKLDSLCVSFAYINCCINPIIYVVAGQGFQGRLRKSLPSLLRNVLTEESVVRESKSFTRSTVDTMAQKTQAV", "assay": "C5a receptor binding assay ([125I]-human C5a, human peripheral blood neutrophil)", "details": "[125I]-C5a 200 pM, 4° C. for 2 hr, read-out: IC50 value, inhibition of [125I]-human C5a binding", "description": "The C5a receptor binding inhibitory action of C5a and the test compound was evaluated by a receptor binding assay comprising of human peripheral blood neutrophil, which expresses the C5a receptor, and [^125I]-human C5a (Amersham Pharmacia Biotech) in a MultiScreen (MILLIPORE). First, neutrophil fraction was separated from human peripheral intravenous blood using lympholyte-poly (Cedarlane), and suspended in a Binding buffer [50 mM HEPES, 1 mM CaCl2, 5 mM MgCl2, 0.5% bovine albumin (BSA, SIGMA), 0.02% NaN3 (pH 7.2)]. The binding assay was started by the addition of 1×10^5 cells/50 μL neutrophil suspension, 25 μL of a test compound solution (obtained by dissolving the test compound in N,N-dimethylformamide to a final concentration of 10 mmol/L and diluting with binding buffer), and 25 μL of [^125I]-C5a solution (final concentration 200 pM), to each well of the MultiScreen. […] After drying the MultiScreen, the radioactivity on the filter was measured using a gamma counter.\nThe rate of inhibition (% inhibition) of C5a binding by the test compound was calculated by the following formula using the count value obtained without addition of the test compound as Total, the count value obtained with addition of non-labeled C5a as Non, and the count value obtained with addition of the test compound as Test. […]"}, "[1]": {"assay": "Dissolution test (JP Dissolution Test Method 2, paddle method)", "format": "physicochemical", "details": "JP second fluid 900 ml, paddle 50 rpm, 37° C., about 10 mg based on free form", "description": "The compounds obtained in Examples 22, 24 and 25, free base•Form-I crystal, and the racemate of the compound of Example 3 were subjected to a dissolution test, and the dissolution rate was compared. According to this test method, the amount of dissolution relative to the content of each compound in the test solution is expressed in the dissolution rate (%), which was measured over time.\nFor the method of adding each compound, the compound (about 10 mg based on free form) was precisely weighed and directly added to a vessel. As the test solution, The Japanese Pharmacopoeia second fluid (900 ml) was used, and the test was performed according to The Japanese Pharmacopoeia Dissolution Test Method 2 (Paddle Method) at 50 rpm. The test temperature was 37° C. After the start of the test, solution for dissolution (10 ml) was taken at suitable times, and a test solution (10 ml) heated to 37° C. was soon carefully added for compensation. The collected solution for dissolution was passed through a filter (DISMIC 13HP PTFE (0.45 μm); Toyo Roshi Kaisha). The filtrate in the early stage (5 ml) was removed, the subsequent filtrate (500 μl) was precisely measured, and the dilution solution (water/acetonitrile/trifluoroacetic acid mixture=500:500:1, 500 μl) was accurately added to give a sample solution.\nSeparately, about 10 mg of the free base•Form-I crystal was precisely weighed, and a dilution solution (water/acetonitrile/trifluoroacetic acid mixture=500:500:1) was added to 50 ml sharp. This solution (2.5 ml) was precisely measured, and a dilution solution (water/acetonitrile/trifluoroacetic acid mixture=500:500:1) was added to 50 ml sharp. This was used as the standard solution of free base•Form-I crystal (10 μg/ml). The sample solution and the standard solution were measured under the HPLC conditions shown below, the peak areas AT and AS of the free base•Form-I crystal in each solution were measured, and the dissolution rate was determined by the following formula.\nThe nth dissolution rate (%) of free base•Form-I crystal=Wn/W100%×100 • W1: the first dissolution amount (mg) of free base•Form-I crystal\n=(900×AT1)×WS/AS/1000 • Wn: the nth (n>1) dissolution amount (mg) of free base•Form-I crystal\n={900×ATn+10×(AT1+AT2 . . . +ATn−1)}×WS/AS/1000 • W100%: cast amount (mg) of drug substance • Ws: collected amount (mg) of free base•Form-I crystal standard product • As: peak area of free base•Form-I crystal in standard solution • AT1: peak area of free base•Form-I crystal in sample solution by the first sampling • ATn: peak area of free base•Form-I crystal in sample solution by the nth sampling. • For racemate, the dissolution rate was calculated based on the total value of S form and R form. […]"}},
  "data": [
    {"smiles": "CCn1cc(CN(C(=O)C2CCCc3c(O)cccc32)c2ccc(C(C)C)nc2)cn1", "note": "(racemic) [racemate of the compound of Example 3, N-[(1-ethyl-1H-pyrazol-4-yl)methyl]-5-hydroxy-N-(6-isopropylpyridin-3-yl)-1,2,3,4-tetrahydronaphthalene-1-carboxamide, reference compound]", "values": [
      {"measurement": "IC50", "setting": "C5a receptor", "value": 23, "unit": "nM"},
      {"measurement": "dissolution rate (comparison)", "setting": "[1]", "value": "slowest"}
    ]}
  ]
}
